Reference: PubChem BioAssay AID504561 (Southern Research Specialized Biocontainment Screening …, 2011)

System: HeLa-CD4-LTR-beta-gal/HL2/3 cell fusion, beta-gal luminescence
Assay: inhibitors of CXCR4-tropic HIV-1 Env cell-cell fusion, dose response, HL2/3 with HeLa-CD4 reporter cells, 2% serum, set 2 (AID 504561)

| Structure (SMILES) | IC50 [µM] |
| --- | --- |
| COc1ccc(Cn2c(O)cc3nn(-c4nc5ccccc5s4)c(=O)c-3c2C)cc1 | 7.91 |
| Cc1c2c(=O)n(-c3nc4ccccc4s3)nc-2cc(O)n1Cc1cccnc1 | 5.71 |
| Cc1c2c(=O)n(-c3nc4ccccc4s3)nc-2cc(O)n1CCc1cccs1 | 7.14 |
| Cc1c2c(=O)n(-c3nc4ccccc4s3)nc-2cc(O)n1CCc1ccc(O)cc1 | 9.72 |
| Cc1c2c(=O)n(-c3nc4ccccc4s3)nc-2cc(O)n1Cc1cccs1 | 4.77 |
| Cc1c2c(=O)n(-c3nc4ccccc4s3)nc-2cc(O)n1Cc1ccc(F)cc1 | 3.9 |

More lines, now with the values ahead:

| IC50 [µM] | Structure (SMILES) |
| --- | --- |
| 4.55 | COc1ccccc1Cn1c(O)cc2nn(-c3nc4ccccc4s3)c(=O)c-2c1C |
| 5.2 | Cc1c2c(=O)n(-c3nc4ccccc4s3)nc-2cc(O)n1CCC(C)C |
| 27.4 | Cc1c2c(=O)n(-c3nc4ccccc4s3)nc-2cc(O)n1Cc1ccccc1 |
| 5.42 | Cc1c2c(=O)n(-c3nc4ccccc4s3)nc-2cc(O)n1Cc1ccccc1Cl |
| 6.94 | COc1ccc(CCn2c(O)cc3nn(-c4nc5ccccc5s4)c(=O)c-3c2C)cc1 |
| 9.59 | Cc1c2c(=O)n(-c3nc4ccccc4s3)nc-2cc(O)n1Cc1ccncc1 |
| 3.56 | Cc1c2c(=O)n(-c3nc4ccccc4s3)nc-2cc(O)n1C1CC1 |
